Experimental data reported in patent EP3466279B1, “PRODUCTION METHOD OF COMPOSITION USING INSECT AS A RAW MATERIAL” (National University Corporation Ehime University, priority 2016, dated 2017).

Key:
[1] = system: mouse macrophage cell line (RAW264 cells); format: cell-based
[2] = system: mouse macrophage cell line (RAW264 cells); assay: Immunosuppressive action: inhibition of LPS-induced nitrogen monoxide production; format: cell-based; details: LPS 100 ng/mL; 1,2-benzenediol 0 µg/mL to 10 µg/mL; FIG. 4
Procedure: A substance contained in Antheraea yamamai pupae and Bombyx mori pupae and having an immunosuppressive action on humans or animals having ate the insects was identified. Distilled water was added to a dry powder of Antheraea yamamai pupae and a dried powder of Bombyx mori pupae and the mixture was stirred and centrifugally separated to obtain the supernatant. Ethyl acetate was added to the resultant supernatant to cause liquid-liquid partition, and the resultant ethyl acetate layer was evaporated to dryness by distilling off the solvent with a rotary evaporator. Distilled water was added to the residue, which was added to a C18 solid phase column, and the flow-through fraction was recovered. The resultant flow-through fraction was eluted with high performance liquid chromatography (Develosil C30 column), and the immunosuppressive action of each eluted fraction obtained was measured. […]
Whether 1,2-benzenediol identified from Antheraea yamamai pupae and Bombyx mori pupae has an immunosuppressive action or not was evaluated by the production of nitrogen monoxide from a mouse macrophage cell line (RAW264 cells) as an indicator.

## Oc1ccccc1O [1,2-benzenediol]
[1]
  growth inhibition of a mouse macrophage cell line (concentration at which confirmed): ≥ 1 µg/mL
[2]
  inhibition of nitrogen monoxide production: inhibition of nitrogen monoxide production was observed depending on the concentration
